Test results published in US20170312293A1, “ANTIMICROBIAL WATER DISPERSIBLE COMPOSITION COMPRISING ZINC PYRITHIONE” (KOLON LIFE SCIENCE, INC., priority 2014, published 2017).
Where a name gives a salt, the structure may show the parent alone.

Assays:
[1] = Stability of zinc pyrithione aqueous dispersion: layer separation degree via centrifugation, naked eye; assay type: physicochemical; conditions: zinc pyrithione aqueous dispersion including the antiseptic, layer separation degree (supernatant height / total height) via centrifugation
Protocol: (§1) First, a zinc pyrithione aqueous dispersion including an antiseptic which was identified to have antiseptic activity was prepared and then stored at room temperature (R.T.), at a temperature ranging from 10° C. to 20° C., or 60° C., and variation in physical properties related to stability and dispersibility were checked.
(§2) Variation in physical properties was determined depending on whether or not assay, viscosity, pH and particle size were changed, and variation in dispersibility was determined by checking layer separation degree using centrifugation and measuring dispersion stability using Turbiscan for detecting particle size variation and phase separation.
Stability was evaluated by checking a layer separation degree (production of supernatant) using centrifugation by the naked eye and was divided into grades based on the proportion of the height of the layer-separated supernatant with respect to the total height of the sample. With respect to the grades, layer separation degree (production of supernatant) of less than 5% was regarded as “high”, layer separation degree of 10% or less was regarded as “medium-high”, layer separation degree of 15% or less was regarded as “medium”, layer separation degree of 20% or less was regarded as “medium-low” and layer separation degree of higher than 20% was regarded as “low”.

[2] = system: Pseudomonas aeruginosa; assay: Challenge test (antibiotic activity) against P. aeruginosa; assay type: cell-based; conditions: day on which all strains completely died; inoculum 1.0×10^6 cells/ml, 37° C., sampling days 1, 2, 3, 7; sample without zinc pyrithione, pH 5.5 to 9.0
Protocol: (§3) Respective samples were inoculated with three kinds of bacteria and two kinds of fungus and cultured for 7 days in order to measure antibiotic activity. On the first, second, third and seventh days, sampling was conducted, the sample was spread on a solid medium and antibiotic activity was checked. Strains used to measure antibiotic activity were Escherichia coli, Staphylococcus aureus, Pseudomonas aeruginosa for bacteria, and Candida albicans and Aspergillus niger for fungus. Regarding the media used respectively for the strains, TSA (tryptic soy agar) and NB (nutrient broth) were used for the three types of bacteria, and SDA (Sabouraud dextrose agar) and YM (yeast extract and malt extract) were used for Candida albicans (C. albicans), and SDA (Sabouraud dextrose agar) and MD (malt extract and dextrose) were used for Aspergillus niger (A. niger).
(§4) Antibiotic activity was evaluated based on the day on which all strains completely died, rather than lived and grew in the sample spread on the solid medium. First day death was considered to be excellent, second day death was considered to be good, third day death was considered to be medium, seventh day death was considered to be bad and no death until the seventh day was considered to be extremely bad.
(§5) A more detailed test method is as follows. […] 50 g of an aqueous dispersion supplemented with a suitable concentration of antibiotic agent was added to the container to prepare a sample. In consideration of the test method, in order to test zinc pyrithione having antibiotic activity, antibiotic activity of zinc pyrithione was preferably removed using a neutralization agent, but water was inevitably used to adjust a predetermined volume without adding zinc pyrithione due to absence of a suitable neutralization agent.
(§6) The prepared sample was inoculated with 1.0×10^6 cells/ml of E. coli, S. aureus and P. aeruginosa, and with 1.0×10^5 cells/ml of C. albicans and A. niger. Then, E. coli, S. aureus and P. aeruginosa were cultured at 37° C., while C. albicans and A. niger were cultured at 30° C. At the point of times of 1, 2, 3 and 7 days after culture, […] of the sample was obtained and spread on a solid medium and E. coli, S. aureus and P. aeruginosa were then cultured at 37° C. for 1 day for, and C. albicans and A. niger were cultured at 30° C. for 2 days. Then, whether the strains were alive or dead was checked. The respective antiseptics were used with reference to optimal pH, dosage and MIC recommended by the company of manufacture, wherein the test pH conditions were pH 5.5 to 9.0 at which zinc pyrithione was stable.

[3] = system: Aspergillus niger; assay: Challenge test (antibiotic activity) against A. niger; assay type: cell-based; conditions: for Challenge test A. niger (antibiotic activity grade): day on which all strains completely died, inoculum 1.0×10^5 cells/ml, 30° C., sampling days 1, 2, 3, 7, sample without zinc pyrithione, pH 5.5 to 9.0
Protocol: as §3, §4, §5, §6

[4] = system: Candida albicans; assay: Challenge test (antibiotic activity) against C. albicans; assay type: cell-based; conditions: day on which all strains completely died; inoculum 1.0×10^5 cells/ml, 30° C., sampling days 1, 2, 3, 7; sample without zinc pyrithione, pH 5.5 to 9.0
Protocol: as §3, §4, §5, §6

[5] = system: Escherichia coli; assay: Challenge test (antibiotic activity) against E. coli; assay type: cell-based; conditions: day on which all strains completely died; inoculum 1.0×10^6 cells/ml, 37° C., sampling days 1, 2, 3, 7; sample without zinc pyrithione, pH 5.5 to 9.0
Protocol: as §3, §4, §5, §6

[6] = Dispersion stability by Turbiscan (Turbiscan stability index); assay type: physicochemical; conditions: zinc pyrithione aqueous dispersion with the antiseptic stored at 60° C. for 2 weeks, lower = more stable, 0 = no variation
Protocol: as §1, §2
Meanwhile, from the result of determination of stability via separate testing of the zinc pyrithione aqueous dispersion composition using the Turbiscan, it could seen that the result obtained by storing at 60° C. for 2 weeks was similar to the result obtained by storing at room temperature for 3 months. Therefore, stability of the zinc pyrithione aqueous dispersion was compared based on stability index (Turbiscan stability index) associated with the result obtained by storing the test subject substances at 60° C. for 2 weeks.
In addition, the stability of conventionally used antiseptics was measured as Turbiscan-related stability and the result thus obtained is shown as a stability index in the following Table 2. […]

[7] = system: Staphylococcus aureus; assay: Challenge test (antibiotic activity) against S. aureus; assay type: cell-based; conditions: day on which all strains completely died; inoculum 1.0×10^6 cells/ml, 37° C., sampling days 1, 2, 3, 7; sample without zinc pyrithione, pH 5.5 to 9.0
Protocol: as §3, §4, §5, §6

Row | Molecule | Stability of zinc pyrithione aqueous dispersion [1] | Challenge test P. aeruginosa (antibiotic activity grade) [2] | Challenge test A. niger (antibiotic activity grade) [3] | Challenge test C. albicans (antibiotic activity grade) [4] | Challenge test E. coli (antibiotic activity grade) [5] | Stability index at 60° C. × 2 weeks [6] | Challenge test S. aureus (antibiotic activity grade) [7] | Antibiotic activity to A. niger ([3]; conclusion in words from the challenge test)
1 | CCCCC(O)CO (stereo not shown) [1,2-hexanediol] | Medium (layer separation degree of 15% or less was regarded as “medium”) |  |  |  |  |  |  | 
2 | CCCCCCC(O)CO (stereo not shown) [1,2-octanediol] | Medium (layer separation degree of 15% or less was regarded as “medium”) |  |  |  |  |  |  | 
3 | OCc1ccccc1 [Benzyl alcohol] | Medium-low (layer separation degree of 20% or less was regarded as “medium-low”) |  |  |  |  |  |  | 
4 | CC1(C)C(=O)N(CO)C(=O)N1CO [DMDMH, dimethylol dimethylhydantoin, reference compound] | High (layer separation degree (production of supernatant) of less than 5% was regarded as “high”) | Excellent (First day death was considered to be excellent) | Excellent (First day death was considered to be excellent) | Excellent (First day death was considered to be excellent) | Excellent (First day death was considered to be excellent) | 3.9 | Excellent (First day death was considered to be excellent) | 
5 | Cn1sccc1=O [MIT, methylisothiazolinone, reference compound] | High (layer separation degree (production of supernatant) of less than 5% was regarded as “high”) | Excellent (First day death was considered to be excellent) | Excellent (First day death was considered to be excellent) | Excellent (First day death was considered to be excellent) | Excellent (First day death was considered to be excellent) | 3.9 | Excellent (First day death was considered to be excellent) | 
6 | C/C=C/C=C/C(=O)[O-].[K+] [Potassium sorbate] |  | Good (second day death was considered to be good) | Good (second day death was considered to be good) |  | Good (second day death was considered to be good) |  | Good (second day death was considered to be good) | 
7 | O=C([O-])c1ccccc1.[Na+] [Sodium benzoate] |  | Good (second day death was considered to be good) | Good (second day death was considered to be good) |  | Good (second day death was considered to be good) |  | Good (second day death was considered to be good) | 
8 | O=S([O-])S(=O)(=O)[O-].[Na+].[Na+] [Sodium metabisulfite] |  | Good (second day death was considered to be good) | Good (second day death was considered to be good) |  | Good (second day death was considered to be good) |  | Good (second day death was considered to be good) | 
9 | O=C([O-])c1ccccc1O.[Na+] [Sodium salicylate] |  | Good (second day death was considered to be good) | Good (second day death was considered to be good) |  | Good (second day death was considered to be good) |  | Good (second day death was considered to be good) | 
10 | O=S([O-])[O-].[Na+].[Na+] [Sodium sulfite] | High (layer separation degree (production of supernatant) of less than 5% was regarded as “high”) | Good (second day death was considered to be good) | Good (second day death was considered to be good) |  | Good (second day death was considered to be good) |  | Good (second day death was considered to be good) | 
11 | Cc1ncc(C[n+]2csc(CCO)c2C)c(N)n1 [Thiamine dilauryl sulfate, thiamine dilauryl sulphate] |  | Good (second day death was considered to be good) | Bad (seventh day death was considered to be bad) | Good (second day death was considered to be good) | Good (second day death was considered to be good) |  | Excellent (First day death was considered to be excellent) | vulnerable
12 | Ethylhexyl glycerin |  | Extremely bad (no death until the seventh day was considered to be extremely bad) | Medium (third day death was considered to be medium) | Good (second day death was considered to be good) | Good (second day death was considered to be good) |  | Good (second day death was considered to be good) | 
